From ChEMBL document CHEMBL5131445, “Optimization of a novel piperazinone series as potent selective peripheral covalent BTK inhibitors” (Bioorg Med Chem Lett, 2022)
pKd: −log10 of the molar value.

Legend:
[1] = biological target: Receptor tyrosine-protein kinase erbB-2 (Homo sapiens, UniProt P04626); assay: Binding affinity to ERBB2 (unknown origin) assessed as dissociation constant by KINOMEscan analysis
[2] = biological target: Receptor tyrosine-protein kinase erbB-4 (Homo sapiens, UniProt Q15303); assay: Binding affinity to ERBB4 (unknown origin) assessed as dissociation constant by KINOMEscan analysis
Sequence of Receptor tyrosine-protein kinase erbB-4 (Q15303 whole entry): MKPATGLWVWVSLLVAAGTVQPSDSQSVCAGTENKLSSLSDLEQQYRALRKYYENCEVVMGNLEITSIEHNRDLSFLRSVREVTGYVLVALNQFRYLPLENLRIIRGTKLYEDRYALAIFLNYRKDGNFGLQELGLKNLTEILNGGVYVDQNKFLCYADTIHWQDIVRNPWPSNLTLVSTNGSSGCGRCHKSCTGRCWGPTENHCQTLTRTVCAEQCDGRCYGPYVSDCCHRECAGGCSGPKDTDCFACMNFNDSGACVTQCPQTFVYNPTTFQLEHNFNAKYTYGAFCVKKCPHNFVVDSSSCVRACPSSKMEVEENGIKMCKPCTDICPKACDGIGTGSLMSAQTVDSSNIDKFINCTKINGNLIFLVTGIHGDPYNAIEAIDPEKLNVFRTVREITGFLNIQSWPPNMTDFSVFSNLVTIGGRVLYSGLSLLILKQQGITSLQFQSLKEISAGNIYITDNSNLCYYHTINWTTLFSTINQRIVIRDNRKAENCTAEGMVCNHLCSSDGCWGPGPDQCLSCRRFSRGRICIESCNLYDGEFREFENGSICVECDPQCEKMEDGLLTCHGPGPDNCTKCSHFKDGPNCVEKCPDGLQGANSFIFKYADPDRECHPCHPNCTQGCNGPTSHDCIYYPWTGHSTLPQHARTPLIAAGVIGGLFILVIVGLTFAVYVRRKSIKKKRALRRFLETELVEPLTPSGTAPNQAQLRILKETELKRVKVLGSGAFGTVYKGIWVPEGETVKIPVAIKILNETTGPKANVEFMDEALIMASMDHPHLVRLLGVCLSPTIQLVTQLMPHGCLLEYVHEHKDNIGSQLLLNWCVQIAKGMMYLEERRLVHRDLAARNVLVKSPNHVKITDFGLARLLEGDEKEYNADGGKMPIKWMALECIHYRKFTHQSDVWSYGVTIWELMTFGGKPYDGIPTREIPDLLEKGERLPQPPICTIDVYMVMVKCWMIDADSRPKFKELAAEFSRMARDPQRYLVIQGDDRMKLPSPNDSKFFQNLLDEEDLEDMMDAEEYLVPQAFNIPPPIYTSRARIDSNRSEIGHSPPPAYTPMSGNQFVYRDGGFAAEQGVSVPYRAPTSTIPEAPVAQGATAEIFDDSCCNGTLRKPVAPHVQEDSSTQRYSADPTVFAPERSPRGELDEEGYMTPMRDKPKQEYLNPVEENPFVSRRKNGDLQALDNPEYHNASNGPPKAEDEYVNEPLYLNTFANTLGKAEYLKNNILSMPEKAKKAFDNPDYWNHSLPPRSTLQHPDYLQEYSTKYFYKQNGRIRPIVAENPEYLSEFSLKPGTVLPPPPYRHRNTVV

[3] = biological target: Tyrosine-protein kinase Blk (Homo sapiens, UniProt P51451); assay: Binding affinity to BLK (unknown origin) assessed as dissociation constant by KINOMEscan analysis
Sequence of Tyrosine-protein kinase Blk (P51451 whole entry): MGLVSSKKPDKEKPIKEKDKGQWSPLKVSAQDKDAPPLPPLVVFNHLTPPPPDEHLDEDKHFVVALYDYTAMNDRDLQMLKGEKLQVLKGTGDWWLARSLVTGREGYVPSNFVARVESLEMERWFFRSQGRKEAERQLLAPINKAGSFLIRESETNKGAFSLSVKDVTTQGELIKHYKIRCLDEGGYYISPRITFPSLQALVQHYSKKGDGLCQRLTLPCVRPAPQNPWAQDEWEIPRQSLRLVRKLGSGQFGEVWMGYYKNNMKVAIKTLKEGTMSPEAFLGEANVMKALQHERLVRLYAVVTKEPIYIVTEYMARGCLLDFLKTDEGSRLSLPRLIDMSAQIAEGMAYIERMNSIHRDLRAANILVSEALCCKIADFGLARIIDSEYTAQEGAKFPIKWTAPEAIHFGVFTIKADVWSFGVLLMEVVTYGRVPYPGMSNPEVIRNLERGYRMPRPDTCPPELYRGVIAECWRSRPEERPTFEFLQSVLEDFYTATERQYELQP

[4] = biological target: Epidermal growth factor receptor (Homo sapiens, UniProt P00533); assay: Binding affinity to EGFR (unknown origin) assessed as dissociation constant by KINOMEscan analysis
Sequence of Epidermal growth factor receptor (P00533 whole entry): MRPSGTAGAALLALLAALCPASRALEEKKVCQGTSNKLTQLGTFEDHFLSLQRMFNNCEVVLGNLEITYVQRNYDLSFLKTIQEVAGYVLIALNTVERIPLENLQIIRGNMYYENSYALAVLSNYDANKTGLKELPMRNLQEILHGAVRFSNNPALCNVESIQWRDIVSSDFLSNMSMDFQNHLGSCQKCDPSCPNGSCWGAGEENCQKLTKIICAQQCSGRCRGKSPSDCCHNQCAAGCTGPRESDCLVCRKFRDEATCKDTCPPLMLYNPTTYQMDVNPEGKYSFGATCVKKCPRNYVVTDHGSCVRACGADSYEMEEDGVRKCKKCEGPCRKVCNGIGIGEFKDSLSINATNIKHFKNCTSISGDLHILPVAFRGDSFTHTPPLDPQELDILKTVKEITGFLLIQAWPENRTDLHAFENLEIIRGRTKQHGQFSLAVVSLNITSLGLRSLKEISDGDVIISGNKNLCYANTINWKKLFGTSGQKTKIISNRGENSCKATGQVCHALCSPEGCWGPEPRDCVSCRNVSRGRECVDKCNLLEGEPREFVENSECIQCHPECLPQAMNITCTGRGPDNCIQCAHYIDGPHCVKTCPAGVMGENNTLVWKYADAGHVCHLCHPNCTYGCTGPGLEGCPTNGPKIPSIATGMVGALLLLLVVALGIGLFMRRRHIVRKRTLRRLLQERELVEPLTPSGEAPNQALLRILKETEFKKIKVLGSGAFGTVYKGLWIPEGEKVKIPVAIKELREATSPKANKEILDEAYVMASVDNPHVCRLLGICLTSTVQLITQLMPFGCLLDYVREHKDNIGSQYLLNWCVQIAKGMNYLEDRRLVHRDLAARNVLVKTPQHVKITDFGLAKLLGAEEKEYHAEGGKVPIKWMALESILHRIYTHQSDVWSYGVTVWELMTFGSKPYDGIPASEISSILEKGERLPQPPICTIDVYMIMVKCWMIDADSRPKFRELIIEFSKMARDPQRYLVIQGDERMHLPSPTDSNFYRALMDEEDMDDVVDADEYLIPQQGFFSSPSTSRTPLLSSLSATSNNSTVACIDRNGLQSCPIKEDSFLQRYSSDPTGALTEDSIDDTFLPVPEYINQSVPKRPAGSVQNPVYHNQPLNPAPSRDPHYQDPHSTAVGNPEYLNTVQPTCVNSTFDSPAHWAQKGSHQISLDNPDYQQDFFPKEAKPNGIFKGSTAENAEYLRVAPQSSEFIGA

[5] = biological target: T1, Tyrosine-protein kinase ITK/TSK (Homo sapiens, UniProt Q08881); assay: Binding affinity to ITK (unknown origin) assessed as dissociation constant by KINOMEscan analysis
T1 sequence (Q08881 whole entry): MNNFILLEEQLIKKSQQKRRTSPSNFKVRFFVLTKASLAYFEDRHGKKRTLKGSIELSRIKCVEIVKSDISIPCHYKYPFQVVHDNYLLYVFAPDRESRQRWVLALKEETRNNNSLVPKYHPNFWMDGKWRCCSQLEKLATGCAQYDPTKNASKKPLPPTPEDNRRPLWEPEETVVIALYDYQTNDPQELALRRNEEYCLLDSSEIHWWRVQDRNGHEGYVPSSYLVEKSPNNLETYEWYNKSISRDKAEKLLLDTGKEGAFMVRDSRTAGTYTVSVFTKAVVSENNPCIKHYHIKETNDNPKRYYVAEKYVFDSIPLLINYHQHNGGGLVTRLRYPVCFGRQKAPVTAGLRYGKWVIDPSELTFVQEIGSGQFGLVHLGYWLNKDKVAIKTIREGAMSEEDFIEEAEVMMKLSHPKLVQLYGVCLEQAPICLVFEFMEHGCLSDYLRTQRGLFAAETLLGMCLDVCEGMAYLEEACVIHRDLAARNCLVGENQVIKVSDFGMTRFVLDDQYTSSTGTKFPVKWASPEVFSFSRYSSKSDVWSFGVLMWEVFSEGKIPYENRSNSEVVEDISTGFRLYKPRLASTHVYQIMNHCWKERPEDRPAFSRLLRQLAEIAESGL

[6] = biological target: T2, Tyrosine-protein kinase JAK3 (Homo sapiens, UniProt P52333); assay: Binding affinity to JAK3 (unknown origin) assessed as dissociation constant by KINOMEscan analysis
T2 sequence (P52333 whole entry): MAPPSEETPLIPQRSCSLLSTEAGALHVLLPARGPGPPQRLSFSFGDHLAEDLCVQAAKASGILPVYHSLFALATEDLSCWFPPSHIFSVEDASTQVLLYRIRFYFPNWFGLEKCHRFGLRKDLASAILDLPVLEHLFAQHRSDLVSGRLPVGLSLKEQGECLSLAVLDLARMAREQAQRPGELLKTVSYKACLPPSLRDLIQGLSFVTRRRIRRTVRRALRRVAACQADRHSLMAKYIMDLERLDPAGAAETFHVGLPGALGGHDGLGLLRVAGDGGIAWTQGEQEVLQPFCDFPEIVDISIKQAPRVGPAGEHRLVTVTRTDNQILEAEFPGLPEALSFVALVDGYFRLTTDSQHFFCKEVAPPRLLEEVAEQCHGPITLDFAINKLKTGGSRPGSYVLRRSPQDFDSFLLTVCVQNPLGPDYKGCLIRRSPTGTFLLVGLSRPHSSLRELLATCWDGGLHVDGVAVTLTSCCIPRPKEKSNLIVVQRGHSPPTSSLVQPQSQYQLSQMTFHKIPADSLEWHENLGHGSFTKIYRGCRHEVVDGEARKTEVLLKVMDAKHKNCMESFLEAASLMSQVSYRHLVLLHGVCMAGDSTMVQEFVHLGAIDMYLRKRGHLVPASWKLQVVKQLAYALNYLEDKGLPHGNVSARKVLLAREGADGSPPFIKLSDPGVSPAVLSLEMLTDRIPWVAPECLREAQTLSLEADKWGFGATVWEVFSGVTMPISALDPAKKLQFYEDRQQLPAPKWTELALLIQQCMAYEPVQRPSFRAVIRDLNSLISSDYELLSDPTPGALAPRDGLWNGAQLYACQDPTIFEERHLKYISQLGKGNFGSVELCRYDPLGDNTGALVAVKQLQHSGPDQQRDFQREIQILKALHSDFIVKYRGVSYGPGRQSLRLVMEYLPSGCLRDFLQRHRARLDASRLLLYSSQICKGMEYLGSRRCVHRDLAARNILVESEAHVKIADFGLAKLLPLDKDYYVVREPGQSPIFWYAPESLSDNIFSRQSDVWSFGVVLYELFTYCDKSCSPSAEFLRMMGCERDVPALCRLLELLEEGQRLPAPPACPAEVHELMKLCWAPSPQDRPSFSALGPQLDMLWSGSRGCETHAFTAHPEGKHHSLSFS

[7] = biological target: T3, Tyrosine-protein kinase Tec (Homo sapiens, UniProt P42680); assay: Binding affinity to TEC (unknown origin) assessed as dissociation constant by KINOMEscan analysis
T3 sequence (P42680 whole entry): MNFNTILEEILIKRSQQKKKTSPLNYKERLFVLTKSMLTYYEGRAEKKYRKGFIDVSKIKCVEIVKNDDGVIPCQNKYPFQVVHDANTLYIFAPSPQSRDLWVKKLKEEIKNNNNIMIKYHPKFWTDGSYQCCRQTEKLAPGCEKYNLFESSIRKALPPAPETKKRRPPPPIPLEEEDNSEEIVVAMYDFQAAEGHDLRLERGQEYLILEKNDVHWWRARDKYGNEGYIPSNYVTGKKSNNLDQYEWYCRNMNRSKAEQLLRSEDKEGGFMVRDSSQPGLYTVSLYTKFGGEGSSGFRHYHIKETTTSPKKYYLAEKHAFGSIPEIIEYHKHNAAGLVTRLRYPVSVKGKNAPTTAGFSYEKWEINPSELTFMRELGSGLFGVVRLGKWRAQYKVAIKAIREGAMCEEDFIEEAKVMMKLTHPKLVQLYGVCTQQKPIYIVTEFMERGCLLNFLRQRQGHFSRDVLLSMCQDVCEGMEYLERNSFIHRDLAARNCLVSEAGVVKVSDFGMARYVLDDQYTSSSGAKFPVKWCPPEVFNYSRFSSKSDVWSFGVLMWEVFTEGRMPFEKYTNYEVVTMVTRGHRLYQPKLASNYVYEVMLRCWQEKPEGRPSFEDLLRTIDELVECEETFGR

[8] = biological target: T4, Tyrosine-protein kinase TXK (Homo sapiens, UniProt P42681); assay: Binding affinity to TXK (unknown origin) assessed as dissociation constant by KINOMEscan analysis
T4 sequence (P42681 whole entry): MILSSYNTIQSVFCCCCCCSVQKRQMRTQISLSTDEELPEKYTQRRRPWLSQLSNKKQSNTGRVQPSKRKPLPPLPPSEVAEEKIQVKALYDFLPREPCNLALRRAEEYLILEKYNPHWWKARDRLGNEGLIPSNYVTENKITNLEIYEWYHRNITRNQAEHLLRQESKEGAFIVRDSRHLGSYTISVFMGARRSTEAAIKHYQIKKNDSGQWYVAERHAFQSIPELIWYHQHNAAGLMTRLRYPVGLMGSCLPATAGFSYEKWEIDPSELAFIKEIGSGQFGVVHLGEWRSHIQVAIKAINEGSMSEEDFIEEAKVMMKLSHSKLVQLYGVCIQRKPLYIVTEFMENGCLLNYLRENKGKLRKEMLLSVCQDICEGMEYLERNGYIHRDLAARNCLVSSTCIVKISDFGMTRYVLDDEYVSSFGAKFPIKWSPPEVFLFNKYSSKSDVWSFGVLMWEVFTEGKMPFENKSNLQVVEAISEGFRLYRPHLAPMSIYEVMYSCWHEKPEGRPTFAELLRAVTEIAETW

Sequence of Receptor tyrosine-protein kinase erbB-2 (P04626 whole entry): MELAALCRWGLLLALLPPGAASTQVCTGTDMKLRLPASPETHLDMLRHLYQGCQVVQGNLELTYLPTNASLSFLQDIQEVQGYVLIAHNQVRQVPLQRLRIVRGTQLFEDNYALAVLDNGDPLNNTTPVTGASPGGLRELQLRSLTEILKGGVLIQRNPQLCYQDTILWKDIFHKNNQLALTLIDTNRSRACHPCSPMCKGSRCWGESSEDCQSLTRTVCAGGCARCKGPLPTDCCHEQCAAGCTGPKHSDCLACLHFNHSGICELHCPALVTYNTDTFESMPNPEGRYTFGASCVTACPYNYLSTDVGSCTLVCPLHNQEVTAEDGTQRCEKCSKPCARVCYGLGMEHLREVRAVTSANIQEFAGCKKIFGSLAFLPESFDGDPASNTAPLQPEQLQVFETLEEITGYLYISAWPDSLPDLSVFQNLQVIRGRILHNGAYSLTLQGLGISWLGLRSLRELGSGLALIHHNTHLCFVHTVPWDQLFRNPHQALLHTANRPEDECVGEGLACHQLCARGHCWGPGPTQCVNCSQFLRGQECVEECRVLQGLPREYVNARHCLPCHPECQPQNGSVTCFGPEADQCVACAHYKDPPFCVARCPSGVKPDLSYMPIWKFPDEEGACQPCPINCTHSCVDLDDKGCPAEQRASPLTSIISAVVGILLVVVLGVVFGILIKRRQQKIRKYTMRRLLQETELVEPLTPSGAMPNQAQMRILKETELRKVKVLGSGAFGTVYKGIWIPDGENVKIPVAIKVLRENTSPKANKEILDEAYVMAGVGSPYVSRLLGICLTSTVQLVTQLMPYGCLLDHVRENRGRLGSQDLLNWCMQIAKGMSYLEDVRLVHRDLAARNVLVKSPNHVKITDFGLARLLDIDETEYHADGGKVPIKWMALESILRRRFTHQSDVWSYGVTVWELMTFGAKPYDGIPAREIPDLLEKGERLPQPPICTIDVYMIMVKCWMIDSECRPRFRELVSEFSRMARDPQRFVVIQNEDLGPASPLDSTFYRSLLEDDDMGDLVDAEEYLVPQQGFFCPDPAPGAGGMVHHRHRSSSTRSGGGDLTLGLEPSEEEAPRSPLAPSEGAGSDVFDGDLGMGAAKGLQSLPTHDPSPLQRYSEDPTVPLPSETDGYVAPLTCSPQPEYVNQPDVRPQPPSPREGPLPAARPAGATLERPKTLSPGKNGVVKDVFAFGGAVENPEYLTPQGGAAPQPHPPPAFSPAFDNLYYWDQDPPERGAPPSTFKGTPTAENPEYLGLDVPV

Q: How did the pKd [1] turn out when `C[C@@H]1CN(C2COC2)CCN1c1ccc(Nc2cc(-c3ccnc(N4CCn5c(cc6c5CC(C)(C)C6)C4=O)c3CO)cn(C)c2=O)nc1` was run?
A: Its pKd is 4.52.

Q: And the pKd [2]?
A: The pKd was 4.52.

Q: What about the pKd [3] of the same compound?
A: Its pKd is 5.39.

Q: What about the pKd [4] of the same compound?
A: The pKd was 4.52.

Q: What about the pKd [5] of the same compound?
A: The pKd was 6.72.

Q: And the pKd [6]?
A: The pKd was 4.64.

Q: And the pKd [7]?
A: Its pKd is 6.68.

Q: What about the pKd [8] of the same compound?
A: The pKd was 5.70.
